The source of these data is patent publication US11999727B2 (Tango Therapeutics, Inc., priority 2020, dated 2024).

Assay [1] has as its target T1, PRMT5 (Homo sapiens, UniProt O14744).
T1 construct: purchased Viva (custom protein)
The assay can be described thus: PRMT5 biochemical IC50 assay with SAM as cofactor. Particulars: PRMT5, SAM as cofactor; read-out: SAM IC50.

The target in assay [2] is T1, PRMT5. The assay can be described thus: PRMT5 biochemical IC50 assay with no cofactor. Particulars: PRMT5, no cofactor; read-out: No Cofactor/rel IC50. An excerpt: Table 1 indicates IC50 values (μM) against PRMT5 for exemplary compounds in the presence of SAM as cofactor, with no cofactor, and with MTA as cofactor, respectively (columns 4-6). […] Ki values can be calculated from the IC50 values as described in the Examples section. As detailed in the Examples section, for the assay performed in the presence of SAM, IC50=Ki×1.5 (Ki=IC50/1.5).

Assay [3] concerns the target T1, PRMT5. As to the kind of experiment: PRMT5 biochemical IC50 assay with MTA as cofactor. Particulars: PRMT5, MTA as cofactor; read-out: MTA IC50.
Assay [4] has as its system HAP1 MTAP-intact cell line. The assay can be described thus: SDMA in-cell western assay, HAP1 MTAP-intact. Type of assay: cell-based. Particulars: Homo sapiens, HAP1, SDMA in-cell western, HAP1 MTAP-intact; read-out: MTAP HAP1 intact IC50. Summed up:
(§1)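 Isogenic HAP1 pair: the MTAP-intact line expresses endogenous MTAP, and the deleted line is MTAP-null. Symmetric dimethylarginine was detected by in-cell western and IC50 values derived for each line.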

For assay [5], the system named is HAP1 MTAP-deleted cell line. As to the kind of experiment: SDMA in-cell western assay, HAP1 MTAP-deleted. Particulars: for IC50: Homo sapiens, HAP1, SDMA in-cell western, HAP1 MTAP-deleted; for MTAP intact/deleted ratio: IC50 ratio HAP1 MTAP-intact / HAP1 MTAP-deleted, SDMA in-cell western. Type of assay: cell-based. In short, it runs like this:
as §1

For assay [6], the system named is HAP1 MTAP-deleted cell line. As to the kind of experiment: Viability assay, MTAP-deleted cell line. The class given is cell-based. Particulars: Homo sapiens, HAP1, viability assay, read-out: HAP1 MTAP deleted viability. From the text: Table 1 additionally indicates IC50 values in a viability assay for the MTAP-deleted cell line (column 10), indicating the effect of treatment with compound on cell survival.

The mark [7] stands for this setting: read-out: HAP1 MTAP deleted IC50.
Setting [8] is: read-out: HAP 1 MTAP deleted IC50.

T1 sequence (O14744 whole entry): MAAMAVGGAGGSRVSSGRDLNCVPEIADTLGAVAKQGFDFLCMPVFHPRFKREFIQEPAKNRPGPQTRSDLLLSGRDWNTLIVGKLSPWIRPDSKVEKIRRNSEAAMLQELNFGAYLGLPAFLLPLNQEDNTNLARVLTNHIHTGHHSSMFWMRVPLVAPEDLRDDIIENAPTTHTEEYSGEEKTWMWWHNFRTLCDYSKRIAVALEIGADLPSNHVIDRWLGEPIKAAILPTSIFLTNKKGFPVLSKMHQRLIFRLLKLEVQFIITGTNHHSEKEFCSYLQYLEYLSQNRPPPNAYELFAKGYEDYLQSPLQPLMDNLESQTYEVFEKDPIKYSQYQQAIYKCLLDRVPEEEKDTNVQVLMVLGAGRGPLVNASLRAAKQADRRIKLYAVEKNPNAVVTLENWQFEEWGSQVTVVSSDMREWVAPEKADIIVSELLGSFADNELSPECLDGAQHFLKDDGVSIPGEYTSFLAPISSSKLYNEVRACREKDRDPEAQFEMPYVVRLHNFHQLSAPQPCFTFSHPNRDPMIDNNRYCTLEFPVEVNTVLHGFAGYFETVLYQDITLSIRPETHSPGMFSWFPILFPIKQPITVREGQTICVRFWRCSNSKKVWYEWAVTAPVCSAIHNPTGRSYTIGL
T1 sequence (Q9BQA1 whole entry partner): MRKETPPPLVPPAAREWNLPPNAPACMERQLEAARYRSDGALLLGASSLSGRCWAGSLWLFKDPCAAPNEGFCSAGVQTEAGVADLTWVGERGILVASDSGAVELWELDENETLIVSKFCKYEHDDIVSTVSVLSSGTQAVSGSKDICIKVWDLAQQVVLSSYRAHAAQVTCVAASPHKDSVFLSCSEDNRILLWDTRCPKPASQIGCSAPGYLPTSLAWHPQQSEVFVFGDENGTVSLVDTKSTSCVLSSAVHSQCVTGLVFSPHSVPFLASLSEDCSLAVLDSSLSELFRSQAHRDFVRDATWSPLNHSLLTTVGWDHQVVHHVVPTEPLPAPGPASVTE

`Cc1ncc(NC(=O)C(=O)N2C[C@H](C)CC[C@H]2c2ccc3c(c2)CCC(=O)N3)cc1C(F)F` (single isomer, unassigned) [Compound 874]: the IC50 on PRMT5 [1] is 50 to 500 nM; on PRMT5 [2] it was 50 to 500 nM; on PRMT5 [3], under 50 nM; in assay [4], 100 to 1000 nM; in assay [5] (setting [7]), under 100 nM; in assay [6] (HAP1 MTAP-deleted) it was under 1 µM. Also, in assay [5], the MTAP intact/deleted ratio result is recorded as “A (an IC50 ratio greater than or equal to 10 fold)”.

As for `CNc1nc2cc([C@@H]3CC[C@@H](C)CN3C(=O)C(=O)Nc3cnc(OC)c(C(N)=O)c3)ccc2s1` (single isomer, unassigned) [Compound 875], the IC50 was over 500 nM at PRMT5 [1]; over 500 nM on PRMT5 [2]; over 500 nM on PRMT5 [3]; over 1000 nM in assay [4]; over 1000 nM in assay [5] (setting [7]); over 10 µM in assay [6] (HAP1 MTAP-deleted). In addition, the MTAP intact/deleted ratio entry in assay [5] is recorded as “B (an IC50 ratio greater than or equal to 3 fold but lower than 10 fold)”.

Turning to `CNc1ccc([C@H]2CC[C@H](C)CN2C(=O)C(=O)Nc2cnc(N)c(C)c2)cn1` (single isomer, unassigned) [Compound 876], the IC50 at PRMT5 [1] is over 500 nM; on PRMT5 [2], over 500 nM; on PRMT5 [3] it was over 500 nM; in assay [4] it was over 1000 nM; in assay [5] (setting [7]) it was over 1000 nM; in assay [6] (HAP1 MTAP-deleted), over 10 µM. In addition, the MTAP intact/deleted ratio result in assay [5] is recorded as “B (an IC50 ratio greater than or equal to 3 fold but lower than 10 fold)”.

Turning to `CNc1nc2cc([C@@H]3CC[C@@H](C)CN3C(=O)C(=O)Nc3cncc(C(N)=O)c3)ccc2s1` (single isomer, unassigned) [Compound 877], the IC50 on PRMT5 [1] is 50 to 500 nM; at PRMT5 [2], 50 to 500 nM; on PRMT5 [3], under 50 nM; in assay [4], over 1000 nM; in assay [5] (setting [7]), under 100 nM; in assay [6] (HAP1 MTAP-deleted), under 1 µM. Moreover, the MTAP intact/deleted ratio entry in assay [5] is “A (an IC50 ratio greater than or equal to 10 fold)”.

As for `CCc1cc(NC(=O)C(=O)N2C[C@@H](C)CC[C@@H]2c2ccc(NC)nc2)cnc1N` (single isomer, unassigned) [Compound 878], the IC50 at PRMT5 [1] is over 500 nM; on PRMT5 [2] it was over 500 nM; on PRMT5 [3], over 500 nM; in assay [4] it was over 1000 nM; in assay [5] (setting [7]) it was over 1000 nM; in assay [6] (HAP1 MTAP-deleted) it was over 10 µM. Besides, in assay [5], the MTAP intact/deleted ratio entry is “C (an IC50 ratio of less than 3 fold)”.

As for `COc1ncc(NC(=O)C(=O)N2C[C@@H](C)CC[C@@H]2c2ccn(-c3cc[nH]n3)n2)cc1C(N)=O` (single isomer, unassigned) [Compound 881], the IC50 was over 500 nM on PRMT5 [1]; over 500 nM at PRMT5 [2]; over 500 nM at PRMT5 [3]; over 1000 nM in assay [4]; over 1000 nM in assay [5] (setting [7]); over 10 µM in assay [6] (HAP1 MTAP-deleted). Further, in assay [5], the MTAP intact/deleted ratio result is “B (an IC50 ratio greater than or equal to 3 fold but lower than 10 fold)”.

For `C[C@H]1CC[C@H](c2ccn(-c3cc[nH]n3)n2)N(C(=O)C(=O)Nc2cncc(C(N)=O)c2)C1` (single isomer, unassigned) [Compound 882], the IC50 is over 500 nM at PRMT5 [1]; over 500 nM at PRMT5 [2]; over 500 nM at PRMT5 [3]; over 1000 nM in assay [4]; over 1000 nM in assay [5] (setting [7]); over 10 µM in assay [6] (HAP1 MTAP-deleted). In assay [5], the MTAP intact/deleted ratio result is reported as “C (an IC50 ratio of less than 3 fold)”.

As for `C[C@@H]1CC[C@@H](c2cccc3[nH]ncc23)N(C(=O)C(=O)Nc2cncc(C(N)=O)c2)C1` (single isomer, unassigned) [Compound 883], the IC50 was over 500 nM on PRMT5 [1]; over 500 nM at PRMT5 [2]; over 500 nM at PRMT5 [3]; over 1000 nM in assay [4]; over 1000 nM in assay [5] (setting [7]); over 10 µM in assay [6] (HAP1 MTAP-deleted). Besides, the MTAP intact/deleted ratio result in assay [5] is “C (an IC50 ratio of less than 3 fold)”.

`CCc1cc(NC(=O)C(=O)N2C[C@@H](C)CC[C@@H]2c2ccc3sc(NC)nc3c2)cnc1N` (single isomer, unassigned) [Compound 884]: the IC50 at PRMT5 [1] was 50 to 500 nM; at PRMT5 [2], under 50 nM; on PRMT5 [3], under 50 nM; in assay [4], 100 to 1000 nM; in assay [5] (setting [8]) it was under 100 nM; in assay [6] (MTAP-deleted cell line) it was under 1 µM. Moreover, the MTAP intact/deleted ratio entry in assay [5] was “A (an IC50 ratio greater than or equal to 10 fold)”.

With `Cc1cc(NC(=O)C(=O)N2C[C@@H](C)CC[C@@H]2c2ccc(-c3cncs3)cc2)cnc1N` (single isomer, unassigned) [Compound 887, N-(6-amino-5-methylpyridin-3-yl)-2-(5-methyl-2-(4-(thiazol-5-yl)phenyl)piperidin-1-yl)-2-oxoacetamide], the IC50 at PRMT5 [1] was 50 to 500 nM; on PRMT5 [2], 50 to 500 nM; at PRMT5 [3] it was under 50 nM; in assay [4] it was under 100 nM; in assay [5] (setting [8]), under 100 nM; in assay [6] (MTAP-deleted cell line), under 1 µM. Also, in assay [5], the MTAP intact/deleted ratio result is reported as “B (an IC50 ratio greater than or equal to 3 fold but lower than 10 fold)”.

As to `CCc1cc(NC(=O)C(=O)N2C[C@@H](C)CC[C@@H]2c2ccc(NC(C)=O)cc2)cnc1N` (single isomer, unassigned) [Compound 890], the IC50 is 50 to 500 nM at PRMT5 [1]; under 50 nM on PRMT5 [2]; under 50 nM at PRMT5 [3]; 100 to 1000 nM in assay [4]; under 100 nM in assay [5] (setting [8]); under 1 µM in assay [6] (MTAP-deleted cell line). Besides, the MTAP intact/deleted ratio result in assay [5] was “A (an IC50 ratio greater than or equal to 10 fold)”.

As for `CCc1cc(NC(=O)C(=O)N2C[C@H](C)CC[C@H]2c2ccc(NC(C)=O)cc2)cnc1N` (single isomer, unassigned) [Compound 893], the IC50 at PRMT5 [1] was over 500 nM; at PRMT5 [2] it was over 500 nM; at PRMT5 [3] it was over 500 nM; in assay [4] it was over 1000 nM; in assay [5] (setting [8]) it was over 1000 nM; in assay [6] (MTAP-deleted cell line), over 10 µM. In addition, in assay [5], the MTAP intact/deleted ratio entry is reported as “B (an IC50 ratio greater than or equal to 3 fold but lower than 10 fold)”.

For the compound `COc1ncc(NC(=O)C(=O)N2C[C@H](C)CC[C@H]2c2ccn(-c3cc[nH]n3)n2)cc1C(N)=O` (single isomer, unassigned) [Compound 894], the IC50 on PRMT5 [1] was 50 to 500 nM; at PRMT5 [2], 50 to 500 nM; on PRMT5 [3] it was under 50 nM; in assay [4], over 1000 nM; in assay [5] (setting [8]), under 100 nM; in assay [6] (MTAP-deleted cell line), 1 to 10 µM. For the same compound, the MTAP intact/deleted ratio entry in assay [5] was “A (an IC50 ratio greater than or equal to 10 fold)”.

For `Cc1cc(NC(=O)C(=O)N2C[C@H](C)CC[C@H]2c2cccc(S(C)(=O)=O)c2)cnc1N` (single isomer, unassigned) [Compound 895], the IC50 at PRMT5 [1] is 50 to 500 nM; at PRMT5 [2], 50 to 500 nM; on PRMT5 [3], under 50 nM; in assay [4] it was 100 to 1000 nM; in assay [5] (setting [8]), under 100 nM; in assay [6] (MTAP-deleted cell line), 1 to 10 µM. Also, the MTAP intact/deleted ratio entry in assay [5] is listed as “B (an IC50 ratio greater than or equal to 3 fold but lower than 10 fold)”.

Regarding `CCc1cc(NC(=O)C(=O)N2C[C@H](C)CC[C@H]2c2ccc3sc(NC)nc3c2)cnc1N` (single isomer, unassigned) [Compound 896], the IC50 at PRMT5 [1] is over 500 nM; at PRMT5 [2], over 500 nM; at PRMT5 [3], over 500 nM; in assay [4] it was over 1000 nM; in assay [5] (setting [8]), over 1000 nM; in assay [6] (MTAP-deleted cell line) it was over 10 µM. The MTAP intact/deleted ratio entry in assay [5] was “B (an IC50 ratio greater than or equal to 3 fold but lower than 10 fold)”.

As to `C[C@H]1CC[C@H](c2cccc3[nH]ncc23)N(C(=O)C(=O)Nc2cncc(C(N)=O)c2)C1` (single isomer, unassigned) [Compound 897], the IC50 on PRMT5 [1] is 50 to 500 nM; on PRMT5 [2], 50 to 500 nM; at PRMT5 [3] it was under 50 nM; in assay [4], over 1000 nM; in assay [5] (setting [8]) it was under 100 nM; in assay [6] (MTAP-deleted cell line), 1 to 10 µM. Also, the MTAP intact/deleted ratio result in assay [5] is given as “A (an IC50 ratio greater than or equal to 10 fold)”.

In the case of `C[C@@H]1CC[C@@H](c2ccn(-c3cc[nH]n3)n2)N(C(=O)C(=O)Nc2cncc(C(N)=O)c2)C1` (single isomer, unassigned) [Compound 899], the IC50 is 50 to 500 nM on PRMT5 [1]; 50 to 500 nM at PRMT5 [2]; under 50 nM on PRMT5 [3]; over 1000 nM in assay [4]; 100 to 1000 nM in assay [5] (setting [8]); 1 to 10 µM in assay [6] (MTAP-deleted cell line). In assay [5], the MTAP intact/deleted ratio result was “A (an IC50 ratio greater than or equal to 10 fold)”.
